According to US20110082130A1 (LIGAND PHARMACEUTICALS, INC., priority 2006, published 2011):
One block for each compound: values may come before it.

Molecular target: T1, chimeric human H3 receptor (Homo sapiens, UniProt Q9Y5N1)
T1 construct: made in house; host or cells: Sf9 insect cells (baculovirus); P2 membrane preparation
Assay: Chimeric human H3 receptor GTP binding assay (agonist-stimulated GTP-gamma35S binding, Example 7)
Format: biochemical
Method in brief: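 Sf9 membranes co-expressing chimeric human H3 receptor and heterotrimeric G-protein, 35 μg/tube, in pH 7.4 Tris buffer with 10 μM GDP. Test compounds (10^−10–10^−6 M) competed against 1 μM histamine, […] GTP-gamma35S, 60 min at room temperature. Filter-bound radioactivity counted; IC50 converted to Ki by Cheng-Prusoff. Agonism/inverse agonism tested without histamine (EC50).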

[1] = Table II, "*" = Ki in assay of Example 7 less than 1 micromolar
[2] = assay of Example 7, "*" in Ki of Table II
[3] = Table I, P2 membranes of Sf9 cells, 1 μM histamine as agonist, Ki from IC50 by Cheng-Prusoff
[4] = Table II "Ki", symbol *, assay of Example 7

T1 sequence (Q9Y5N1 with tags, fused parts or gaps): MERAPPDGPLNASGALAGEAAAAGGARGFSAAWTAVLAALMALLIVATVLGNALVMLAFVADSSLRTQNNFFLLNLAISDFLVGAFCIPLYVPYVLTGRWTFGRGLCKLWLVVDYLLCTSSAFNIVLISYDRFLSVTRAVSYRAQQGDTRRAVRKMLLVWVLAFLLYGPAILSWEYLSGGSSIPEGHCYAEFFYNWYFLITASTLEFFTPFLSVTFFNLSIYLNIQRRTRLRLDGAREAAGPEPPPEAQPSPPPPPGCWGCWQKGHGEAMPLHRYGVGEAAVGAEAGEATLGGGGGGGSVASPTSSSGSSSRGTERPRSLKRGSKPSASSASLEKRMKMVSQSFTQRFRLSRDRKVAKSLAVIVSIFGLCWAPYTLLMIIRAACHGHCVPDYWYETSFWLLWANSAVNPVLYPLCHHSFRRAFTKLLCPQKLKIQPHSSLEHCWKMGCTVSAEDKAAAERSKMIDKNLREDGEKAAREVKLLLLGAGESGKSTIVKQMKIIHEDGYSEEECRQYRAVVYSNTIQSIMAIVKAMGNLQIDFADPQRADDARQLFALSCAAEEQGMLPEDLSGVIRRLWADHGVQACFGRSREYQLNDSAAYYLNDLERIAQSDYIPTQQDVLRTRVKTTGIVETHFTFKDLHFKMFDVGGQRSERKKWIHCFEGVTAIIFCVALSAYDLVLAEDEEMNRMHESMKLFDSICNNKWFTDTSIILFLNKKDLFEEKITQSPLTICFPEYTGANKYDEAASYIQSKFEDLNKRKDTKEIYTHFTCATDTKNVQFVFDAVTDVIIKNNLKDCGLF

Ki [3]: < 1 µM
SMILES: COc1ccc2c(c1)CCN(CC(=O)N1CCN(C3CCC3)CC1)C2 [Compound 60, 2-[2-(4-cyclobutylpiperazin-1-yl)-2-oxoethyl]-6-methoxy-1,2,3,4-tetrahydroisoquinoline]

Ki [1]: < 1 µM
SMILES: CC(=O)c1ccc(-c2nc3c(s2)CN(CC(=O)N2CCN(C4CCC4)CC2)CC3)cc1 [Compound 98, 1-(4-{5-[2-(4-cyclobutylpiperazin-1-yl)-2-oxoethyl]-4,5,6,7-tetrahydro[1,3]thiazolo [5,4-c]pyridin-2-yl}phenyl)ethanone]

Ki [2]: < 1 µM
SMILES: Cc1cccc(-c2nc3c(s2)CN(CC(=O)N2CCN(C4CCC4)CC2)CC3)c1 [Compound 304, 5-[2-(4-cyclobutylpiperazin-1-yl)-2-oxoethyl]-2-(3-methylphenyl)-4,5,6,7-tetrahydro[1,3]thiazolo [5,4-c]pyridine]

Ki [4]: < 1 µM
SMILES: CC(C)CNc1ccc2c(n1)CCN(CC(=O)N1CCN(C3CCC3)CC1)C2 [Compound 651, 6-[2-(4-cyclobutylpiperazin-1-yl)-2-oxoethyl]-N-isobutyl-5,6,7,8-tetrahydro-1,6-naphthyridin-2-amine]

Ki [2]: < 1 µM
SMILES: Cn1cc2c(n1)CCN(CC(=O)N1CCN(C3CCC3)CC1)C2 [Compound 293, 5-[2-(4-cyclobutylpiperazin-1-yl)-2-oxoethyl]-2-methyl-4,5,6,7-tetrahydro-2H-pyrazolo[4,3-c]pyridine]

Ki [1]: < 1 µM
SMILES: C[C@@H](O)c1ccc2c(c1)CCN(CC(=O)N1CCN(C3CCC3)CC1)C2 (stereo in doubt) [Compound 253, 1-{2-[2-(4-cyclobutylpiperazin-1-yl)-2-oxoethyl]-1,2,3,4-tetrahydroisoquinolin-6-yl}ethanol]

Ki [2]: < 1 µM
SMILES: COc1ccc(-c2nc3c(s2)CN(CC(=O)N2CCN(C4CCC4)CC2)CC3)cc1F [Compound 322, 5-[2-(4-cyclobutylpiperazin-1-yl)-2-oxoethyl]-2-(3-fluoro-4-methoxyphenyl)-4,5,6,7-tetrahydro[1,3]thiazolo [5,4-c]pyridine]

Ki [2]: < 1 µM
SMILES: O=C(CN1CCc2nc(-c3cc(Cl)ccc3Cl)sc2C1)N1CCN(C2CCC2)CC1 [Compound 364, 5-[2-(4-cyclobutylpiperazin-1-yl)-2-oxoethyl]-2-(2,5-dichlorophenyl)-4,5,6,7-tetrahydro[1,3]thiazolo [5,4-c]pyridine]

Ki [3]: < 1 µM
SMILES: Cc1noc(C)c1-c1ccc2c(c1)CCN(CC(=O)N1CCN(C3CCC3)CC1)C2 [Compound 68, 2-[2-(4-cyclobutylpiperazin-1-yl)-2-oxoethyl]-6-(3,5-dimethylisoxazol-4-yl)-1,2,3,4-tetrahydroisoquinoline]

Ki [2]: < 1 µM
SMILES: O=C(CN1CCc2nc(-c3cccc(C(F)(F)F)c3)sc2C1)N1CCN(C2CCC2)CC1 [Compound 372, 5-[2-(4-cyclobutylpiperazin-1-yl)-2-oxoethyl]-2-[3-(trifluoromethyl)phenyl]-4,5,6,7-tetrahydro[1,3]thiazolo [5,4-c]pyridine]

Ki [1]: < 1 µM
SMILES: Cc1ccc(-n2cc3c(n2)CCN(CC(=O)N2CCN(C4CCC4)CC2)C3)nc1 [Compound 261, 5-[2-(4-cyclobutylpiperazin-1-yl)-2-oxoethyl]-2-(5-methylpyridin-2-yl)-4,5,6,7-tetrahydro-2H-pyrazolo[4,3-c]pyridine]

More lines, now with the values behind:

SMILES: O=C(CN1CCc2nn(-c3ccc(C4CC4)nn3)cc2C1)N1CCN(C2CCC2)CC1 [Compound 260, 5-[2-(4-cyclobutylpiperazin-1-yl)-2-oxoethyl]-2-(6-cyclopropylpyridazin-3-yl)-4,5,6,7-tetrahydro-2H-pyrazolo[4,3-c]pyridine]
Ki [1]: < 1 µM

SMILES: CCC(C)N1CCN(C(=O)CN2CCc3cc(-c4cncnc4)ccc3C2)CC1 (stereo not drawn) [Compound 397, 2-[2-(4-sec-butylpiperazin-1-yl)-2-oxoethyl]-6-pyrimidin-5-yl-1,2,3,4-tetrahydroisoquinoline]
Ki [2]: < 1 µM

SMILES: CC1CCCCC1N1CCN(C(=O)CN2CCc3cc(-c4cncnc4)ccc3C2)CC1 (stereo not drawn) [Compound 619, 2-{2-[4-(2-methylcyclohexyl)piperazin-1-yl]-2-oxoethyl}-6-pyrimidin-5-yl-1,2,3,4-tetrahydroisoquinoline]
Ki [4]: < 1 µM

SMILES: O=C(CN1CCc2cc(OC3CCCC3)ccc2C1)N1CCN(C2CCC2)CC1 [Compound 196, 2-[2-(4-cyclobutylpiperazin-1-yl)-2-oxoethyl]-6-(cyclopentyloxy)-1,2,3,4-tetrahydroisoquinoline]
Ki [1]: < 1 µM

SMILES: CC(=O)c1ccc(-n2cc3c(n2)CCN(CC(=O)N2CCN(C4CCC4)CC2)C3)nc1 [Compound 96, 1-(6-{5-[2-(4-cyclobutylpiperazin-1-yl)-2-oxoethyl]-4,5,6,7-tetrahydro-2H-pyrazolo[4,3-c]pyridin-2-yl}pyridin-3-yl)ethanone]
Ki [1]: < 1 µM

SMILES: C[C@@H]1CN(C(=O)CN2CCc3cc(-c4cncnc4)ccc3C2)CCN1C1CCCC1 [Compound 611, 2-{2-[(3R)-4-cyclopentyl-3-methylpiperazin-1-yl]-2-oxoethyl}-6-pyrimidin-5-yl-1,2,3,4-tetrahydroisoquinoline]
Ki [4]: < 1 µM

SMILES: CNC(=O)c1ccc2c(c1)CCN(CC(=O)N1CCN(C3CCC3)CC1)C2 [Compound 85, 2-[2-(4-cyclobutylpiperazin-1-yl)-2-oxoethyl]-N-methyl-1,2,3,4-tetrahydroisoquinoline-6-carboxamide]
Ki [1]: < 1 µM

SMILES: COc1ccc(-c2ccc3c(c2)CCN(CC(=O)N2CCN(C(C)C)CC2)C3)cn1 [Compound 386, 2-[2-(4-isopropylpiperazin-1-yl)-2-oxoethyl]-6-(6-methoxypyridin-3-yl)-1,2,3,4-tetrahydroisoquinoline]
Ki [2]: < 1 µM

SMILES: O=C(CN1CCc2cn(-c3cccnc3)nc2C1)N1CCN(C2CCC2)CC1 [Compound 123, 6-[2-(4-cyclobutylpiperazin-1-yl)-2-oxoethyl]-2-pyridin-3-yl-4,5,6,7-tetrahydro-2H-pyrazolo[3,4-c]pyridine]
Ki [1]: < 1 µM

SMILES: CC(=O)c1ccc2c(c1)CCN(CC(=O)N1CCN(C3CCCC3C)CC1)C2 (stereo not drawn) [Compound 206, 1-(2-{2-[4-(2-methylcyclopentyl)piperazin-1-yl]-2-oxoethyl}-1,2.3,4-tetrahydroisoquinolin-6-yl)ethanone]
Ki [1]: < 1 µM

SMILES: CC1CN(c2ccc3c(n2)CCN(CC(=O)N2CCN4C(C)CCC[C@H]4C2)C3)CC(C)O1 (stereo in doubt) [Compound 179, 2-(2,6-dimethylmorpholin-4-yl)-6-[2-(6-methyloctahydro-2H-pyrido[1,2-a]pyrazin-2-yl)-2-oxoethyl]-5,6,7,8-tetrahydro-1,6-naphthyridine]
Ki [1]: < 1 µM

SMILES: O=C(CN1CCc2cc(-c3cncnc3)ccc2C1)N1CCN2CCCCC2C1 (stereo not drawn) [Compound 151, 2-[(6-pyrimidin-5-yl-3,4-dihydroisoquinolin-2(1H)-yl)acetyl]octahydro-2H-pyrido[1,2-a]pyrazine]
Ki [1]: < 1 µM

SMILES: O=C(CN1CCc2nn(-c3ccc(N4CCCC4)nn3)cc2C1)N1CCN(C2CCC2)CC1 [Compound 258, 5-[2-(4-cyclobutylpiperazin-1-yl)-2-oxoethyl]-2-(6-pyrrolidin-1-ylpyridazin-3-yl)-4,5,6,7-tetrahydro-2H-pyrazolo[4,3-c]pyridine]
Ki [1]: < 1 µM

SMILES: CN(c1ccc2c(n1)CCN(CC(=O)N1CCN(C3CCC3)CC1)C2)C1CCCCC1 [Compound 677, 6-[2-(4-cyclobutylpiperazin-1-yl)-2-oxoethyl]-N-cyclohexyl-N-methyl-5,6,7,8-tetrahydro-1,6-naphthyridin-2-amine]
Ki [4]: < 1 µM

SMILES: CC(C)C(C)Nc1ccc2c(n1)CCN(CC(=O)N1CCN(C3CCC3)CC1)C2 (stereo not drawn) [Compound 661, 6-[2-(4-cyclobutylpiperazin-1-yl)-2-oxoethyl]-N-(1,2-dimethylpropyl)-5,6,7,8-tetrahydro-1,6-naphthyridin-2-amine]
Ki [4]: < 1 µM

SMILES: CNC(=O)c1ccc2c(c1)CN(CC(=O)N1CCN(C3CCC3)CC1)CC2 [Compound 66, 2-[2-(4-cyclobutylpiperazin-1-yl)-2-oxoethyl]-N-methyl-1,2,3,4-tetrahydroisoquinoline-7-carboxamide]
Ki [3]: < 1 µM

SMILES: C[C@@H]1CN(C(=O)CN2CCc3cc(-c4cncnc4)ccc3C2)CCN1C1CCCCC1 [Compound 617, 2-{2-[(3R)-4-cyclohexyl-3-methylpiperazin-1-yl]-2-oxoethyl}-6-pyrimidin-5-yl-1,2,3,4-tetrahydroisoquinoline]
Ki [4]: < 1 µM

SMILES: CNC(=O)c1cnc2c(c1)CCN(CC(=O)N1CCN(C3CCC3)C(C)C1)C2 (stereo not drawn) [Compound 121, 7-[2-(4-cyclobutyl-3-methylpiperazin-1-yl)-2-oxoethyl]-N-methyl-5,6,7,8-tetrahydro-1,7-naphthyridine-3-carboxamide]
Ki [1]: < 1 µM

SMILES: O=C(CN1CCc2cc(-c3ccncc3)ccc2C1)N1CCN(C2CCC2)CC1 [Compound 75, 2-[2-(4-cyclobutylpiperazin-1-yl)-2-oxoethyl]-6-pyridin-4-yl-1,2,3,4-tetrahydroisoquinoline]
Ki [3]: < 1 µM

SMILES: COc1cc2c(cc1OC)CN(CC(=O)N1CCN(C3CCC3)CC1)CC2 [Compound 48, 2-[2-(4-cyclobutylpiperazin-1-yl)-2-oxoethyl]-6,7-dimethoxy-1,2,3,4-tetrahydroisoquinoline]
Ki [3]: < 1 µM

SMILES: O=C(CN1CCc2cc(-c3ccc(C(F)(F)F)cn3)ccc2C1)N1CCN(C2CCC2)CC1 [Compound 632, 2-[2-(4-cyclobutylpiperazin-1-yl)-2-oxoethyl]-6-[5-(trifluoromethyl)pyridin-2-yl]-1,2,3,4-tetrahydroisoquinoline]
Ki [4]: < 1 µM

SMILES: O=C(CN1CCc2[nH]c(=O)ccc2C1)N1CCN(C2CCCC2)CC1 [Compound 133, 6-[2-(4-cyclopentylpiperazin-1-yl)-2-oxoethyl]-5,6,7,8-tetrahydro-1,6-naphthyridin-2(1H)-one]
Ki [1]: < 1 µM
